The results in this text go back to patent publication US11696917B2, “Agent enhancing antitumor effect using pyrazolo[3,4-d]pyrimidine compound” (TAIHO PHARMACEUTICAL CO., LTD., priority 2017, dated 2023).

This data set deals with human stomach cancer cell line NCI-N87. Kind of data set: Combination of Compound 1 and capecitabine (in vivo), subcutaneous tumor in nude mice. On the set-up: species or system nude mouse (BALB/cAJcl-nu/nu). The conditions noted are these: for T/C (%): Day 15. Here is the method:
A human stomach cancer cell line NCI-N87 was obtained from American Type Culture Collection (ATCC). The cell line was cultured at 37° C. in a 5% CO2 incubator using RPMI-1640 (containing 4.5 g/L glucose, 10 mM HEPES, and 1 mM sodium pyruvate) (Wako Pure Chemical Industries, Ltd.) medium containing 10% fetal bovine serum (FBS).
The NCI-N87 cells were resuspended at a concentration of 8×10^7 cells/mL in PBS.
The cell suspension was subcutaneously transplanted in an amount of 8×10^6 cells/0.1 mL to the right chest of a 6-week-old nude mouse (BALB/cAJcl-nu/nu, CLEA Japan, Inc.) using a 1 mL syringe for tuberculin and a 25 G injection needle.
Electronic calipers were used in tumor size measurement.

Setting [1] is: Capecitabine 359 mg/kg/day p.o. Days 1-14.
[2] abbreviates: Capecitabine 809 mg/kg/day p.o. Days 1-14.

SMILES strings stand for the structures.

For the molecule `CCCCCOC(=O)Nc1nc(=O)n([C@@H]2O[C@H](C)[C@@H](O)[C@H]2O)cc1F` [Capecitabine, capecitabine], under setting [1], the “BWC (%) Day 15 Mean” value worked out at 7.51%, the “RTV Day 15 Mean ± SD” value turned out to be 1.26 ± 0.21 and the “T/C (%)” value is listed as 30.4%. Further, under setting [2], the “BWC (%) Day 15 Mean” value is on record as −5.30%, the “RTV Day 15 Mean ± SD” value stood at 1.12 ± 0.18 and the “T/C (%)” value is listed as 27.1%. For the same molecule, the “RTV on Day 15 compared with the control group (in words)” value (Dunnett's test) is recorded as “significantly lower”.
